Data: patent publication US8609592B2, “2-(substituted phenyl)-6-amino-5-alkoxy, thioalkoxy and aminoalkyl-4-pyrimidinecarboxylates and their use as herbicides” (Dow AgroSciences LLC, priority 2007, dated 2013)

How the values were obtained:
[1] = tested on: Barnyardgrass (Echinochloa crus-galli); assay: General postemergence herbicidal activity, greenhouse; type: in vivo; settings: post-emergence, 336 h, post-emergent, visual score after 14 days (0 no injury, 100 complete kill), read-out: % Growth Reduction ECHCG; for pest or weed control at 140 g/ha: 140 g ai/ha
Procedure: (§1) Seeds or nutlets of the desired test plant species were planted in Sun Gro MetroMix® 360 planting mixture, which typically has a pH of 6.0 to 6.8 and an organic matter content of about 30 percent, in plastic pots with a surface area of 64 square centimeters. When required to ensure good germination and healthy plants, a fungicide treatment and/or other chemical or physical treatment was applied. The plants were grown for 7-21 days in a greenhouse with an approximate 15 hour photoperiod which was maintained at about 23-29° C. during the day and 22-28° C. during the night. Nutrients and water were added on a regular basis and supplemental lighting was provided with overhead metal halide 1000-Watt lamps as necessary. The plants were employed for testing when they reached the first or second true leaf stage.
(§2) A weighed amount, determined by the highest rate to be tested, of each test compound was dissolved in 4 mL of a 97:3 v/v (volume/volume) mixture of acetone and dimethyl sulfoxide (DMSO) to obtain concentrated stock solutions. […] The concentrated stock solutions obtained were diluted with 20 mL of an aqueous mixture containing acetone, water, isopropyl alcohol, DMSO, Atplus 411F crop oil concentrate, and Triton X-155 surfactant in a 48.5:39:10:1.5:1.0:0.02 v/v ratio to obtain spray solutions containing the highest application rates. Additional application rates were obtained by serial dilution of 12 mL of the high rate solution into a solution containing 2 mL of 97:3 v/v (volume/volume) mixture of acetone and dimethyl sulfoxide (DMSO) and 10 mL of an aqueous mixture containing acetone, water, isopropyl alcohol, DMSO, Atplus 411F crop oil concentrate, and Triton X-155 surfactant in a 48.5:39:10:1.5:1.0:0.02 v/v ratio to obtain ½×, ¼×, ⅛× and 1/16× rates of the high rate. Compound requirements are based upon a 12 mL application volume at a rate of 187 L/ha. Formulated compounds were applied to the plant material with an overhead Mandel track sprayer equipped with a 8002E nozzles calibrated to deliver 187 L/ha over an application area of 0.503 square meters at a spray height of […] above the average plant canopy height. Control plants were sprayed in the same manner with the solvent blank.
(§3) The treated plants and control plants were placed in a greenhouse as described above and watered by sub-irrigation to prevent wash-off of the test compounds. After 14 days, the condition of the test plants as compared with that of the untreated plants was determined visually and scored on a scale of 0 to 100 percent where 0 corresponds to no injury and 100 corresponds to complete kill.

[2] = tested on: Giant foxtail (Setaria faberi); assay: as above; type: in vivo; settings: post-emergence, 336 h, post-emergent, visual score after 14 days (0 no injury, 100 complete kill), read-out: % Growth Reduction SETFA; for pest or weed control at 140 g/ha: 140 g ai/ha; for pest or weed control at 280 g/ha: 280 g ai/ha
Procedure: as §1, §2, §3

[3] = tested on: Velvetleaf (Abutilon theophrasti); assay: as above; type: in vivo; settings: post-emergence, 336 h, post-emergent, visual score after 14 days (0 no injury, 100 complete kill), read-out: % Growth Reduction ABUTH; for pest or weed control at 140 g/ha: 140 g ai/ha; for pest or weed control at 280 g/ha: 280 g ai/ha
Procedure: as §1, §2, §3

[4] = tested on: Wild buckwheat (Polygonum convolvulus); assay: as above; type: in vivo; settings: Fallopia convolvulus, post-emergence, 336 h, post-emergent, visual score after 14 days (0 no injury, 100 complete kill), read-out: % Growth Reduction POLCO; for pest or weed control at 140 g/ha: 140 g ai/ha; for pest or weed control at 280 g/ha: 280 g ai/ha
Procedure: as §1, §2, §3

| Compound | pest or weed control at 140 g/ha [1] | pest or weed control at 140 g/ha [2] | pest or weed control at 140 g/ha [3] | pest or weed control at 140 g/ha [4] | also measured |
| --- | --- | --- | --- | --- | --- |
| COc1c(N)nc(-c2ccc(C)cc2)nc1C(=O)O [Compound 32, 6-Amino-5-methoxy-2-p-tolylpyrimidine-4-carboxylic acid] | 95% | 65% | 80% | 100% |  |
| COC(=O)c1nc(-c2ccc(Cl)c(OC)c2F)nc(N)c1SC [Compound 19, 6-Amino-2-(4-chloro-2-fluoro-3-methoxyphenyl)-5-methylsulfanylpyrimidine-4-carboxylic acid methyl ester] |  |  |  |  | pest or weed control at 195 g/ha ([1]; 195 g ai/ha): 90%; pest or weed control at 195 g/ha ([2]; 195 g ai/ha): 85%; pest or weed control at 195 g/ha ([3]; 195 g ai/ha): 90%; pest or weed control at 195 g/ha ([4]; 195 g ai/ha): 100% |
| COc1c(N)nc(-c2ccc(Cl)cc2F)nc1C(=O)O [Compound 31, 6-Amino-2-(4-chloro-2-fluorophenyl)-5-methoxypyrimidine-4-carboxylic acid] | 85% | 70% | 100% | 100% |  |
| COC(=O)c1nc(-c2ccc(Cl)c(OC)c2F)nc(N)c1OC [Compound 1, 6-amino-2-(4-chloro-2-fluoro-3-methoxyphenyl)-5-methoxypyrimidine-4-carboxylic acid methyl ester] | 100% | 95% | 100% | 100% |  |
| COc1c(N)nc(-c2ccc(Cl)c(OC)c2F)nc1C(=O)O [Compound 22, 6-Amino-2-(4-chloro-2-fluoro-3-methoxyphenyl)-5-methoxypyrimidine-4-carboxylic acid] | 100% | 100% | 100% | 100% |  |
| CCOC(=O)c1nc(-c2ccc(Cl)c(F)c2)nc(N)c1OC [Compound 9, 6-Amino-2-(4-chloro-3-fluorophenyl)-5-methoxypyrimidine-4-carboxylic acid ethyl ester] | 90% | 30% | 95% | 100% |  |
| CCOC(=O)c1nc(-c2ccc3c(c2)OCO3)nc(N)c1OC [Compound 12, 6-Amino-2-benzo[1,3]-dioxol-5-yl-5-methoxypyrimidine-4-carboxylic acid ethyl ester] | 85% | 90% | 50% | 80% |  |
| CCOC(=O)c1nc(-c2ccc(C)cc2F)nc(N)c1OC [Compound 10, 6-Amino-2-(2-fluoro-4-methylphenyl)-5-methoxypyrimidine-4-carboxylic acid ethyl ester] | 10% | 0% | 100% | 90% |  |
| CCOC(=O)c1nc(-c2ccc(C(F)(F)F)cc2)nc(N)c1OC [Compound 11, 6-Amino-5-methoxy-2-(4-trifluoromethylphenyl)pyrimidine-4-carboxylic acid ethyl ester] | 85% | 0% | 90% | 85% |  |
| CCOC(=O)c1nc(-c2ccc(Cl)cc2)nc(N)c1OC [Compound 2, 6-Amino-2-(4-chlorophenyl)-5-methoxypyrimidine-4-carboxylic acid ethyl ester] | 50% | 70% | 98% | 100% |  |
| CCOc1c(N)nc(-c2ccc(Cl)c(OC)c2F)nc1C(=O)O [Compound 18, 6-Amino-2-(4-chloro-2-fluoro-3-methoxyphenyl)-5-ethoxy-pyrimidine-4-carboxylic acid] |  |  |  |  | pest or weed control at 280 g/ha [2]: 70%; pest or weed control at 280 g/ha [3]: 70%; pest or weed control at 280 g/ha [4]: 100% |
| CCOC(=O)c1nc(-c2ccc(Cl)c(C(C)F)c2F)nc(N)c1OC (stereo not shown) [Compound 14, 6-Amino-2-[4-chloro-2-fluoro-3-(1-fluoroethyl)phenyl]-5-methoxypyrimidine-4-carboxylic acid ethyl ester] | 100% | 100% | 100% | 100% |  |
| COc1c(N)nc(-c2ccc(C)cc2F)nc1C(=O)O [Compound 28, 6-Amino-2-(2-fluoro-4-methylphenyl)-5-methoxypyrimidine-4-carboxylic acid] |  |  |  |  | melting point: 94 to 97 °C |
| CCOC(=O)c1nc(-c2cc(C)c(Cl)cc2F)nc(N)c1OC [Compound 3, 6-Amino-2-(4-chloro-2-fluoro-5-methylphenyl)-5-methoxypyrimidine-4-carboxylic acid ethyl ester] |  |  |  |  | pest or weed control at 280 g/ha ([1]; 280 g ai/ha): 0%; pest or weed control at 280 g/ha [2]: 0%; pest or weed control at 280 g/ha [3]: 60%; pest or weed control at 280 g/ha [4]: 85% |
| COc1c(Cl)ccc(-c2nc(N)c(SC)c(C(=O)O)n2)c1F [Compound 21, 6-Amino-2-(4-chloro-2-fluoro-3-methoxyphenyl)-5-methylsulfanyl-pyrimidine-4-carboxylic acid] | 100% | 60% | 85% | 100% |  |
| CCOC(=O)c1nc(-c2cc(OC)c(Cl)cc2F)nc(N)c1OC [Compound 16, 6-Amino-2-(4-chloro-2-fluoro-5-methoxyphenyl)-5-methoxypyrimidine-4-carboxylic acid ethyl ester] | 0% | 10% | 60% | 100% |  |
| CCOC(=O)c1nc(-c2ccc(Cl)cc2F)nc(N)c1OC [Compound 13, 6-Amino-2-(4-chloro-2-fluorophenyl)-5-methoxypyrimidine-4-carboxylic acid ethyl ester] | 0% | 35% | 100% | 100% |  |
